Legend:
[1] = system: rgRSV224 virus; experiment: microbe, parasite or virus in culture; type: cell-based; settings: human respiratory syncytial virus, 72 h; rgRSV224 virus (MOI=1), HeLa cells, GFP expression three days post-virus exposure; averaged data of several repeat experiments; read-out: RSV HELA EC50
[2] = in vitro; settings: human

SMILES: C[C@@H]1c2ccccc2CCN1C(=O)c1cc(C2CC2)c2nc(-c3ccc(C4C[C@@H]4C(=O)O)cc3F)cn2c1 (relative stereo) [Compound 6, Trans 2-(4-{8-Cyclopropyl-6-[(1R)-1-methyl-1,2,3,4-tetrahydroisoquinoline-2-carbonyl]imidazo[1,2-a]pyridin-2-yl}-3-fluorophenyl)cyclopropane-1-carboxylic acid]
- EC50 [1]: 0.103 µM
- CC50 at 3 days [2]: 56.2 µM

SMILES: C[C@@H]1c2ccccc2CCN1C(=O)c1cc(C2CC2)c2nc(-c3ccc(C4C[C@@H]4C(N)=O)cc3F)cn2c1 (relative stereo) [Compound 7, Trans 2-(4-{8-Cyclopropyl-6-[(1R)-1-methyl-1,2,3,4-tetrahydroisoquinoline-2-carbonyl]imidazo[1,2-a]pyridin-2-yl}-3-fluorophenyl)cyclopropane-1-carboxamide]
- EC50 [1]: 0.184 µM
- CC50 at 3 days [2]: 65.4 µM

SMILES: C[C@@H]1c2ccccc2CCN1C(=O)c1cc(C2CC2)c2nc(-c3ccc(C4C[C@@H]4C(=O)NS(C)(=O)=O)cc3F)cn2c1 (relative stereo) [Compound 8, Trans 2-(4-{8-Cyclopropyl-6-[(1R)-1-methyl-1,2,3,4-tetrahydroisoquinoline-2-carbonyl]imidazo[1,2-a]pyridin-2-yl}-3-fluorophenyl)-N-methanesulfonylcyclopropane-1-carboxamide]
- EC50 [1]: 0.793 µM
- CC50 at 3 days [2]: 69.1 µM

SMILES: C[C@@H]1c2ccsc2CCN1C(=O)c1cc(C2CC2)c2nc(-c3ccc(N4CC[C@H](C(N)=O)C4)cc3F)cn2c1 (single isomer, unassigned) [Compound 13, (3S)-1-(4-{8-Cyclopropyl-6-[(4*R)-4-methyl-4,5,6,7-tetrahydro-thieno[3,2-c]pyridine-5-carbonyl]imidazo[1,2-a]pyridin-2-yl}-3-fluorophenyl)pyrrolidine-3-carboxamide]
- EC50 [1]: 0.037 µM
- CC50 at 3 days [2]: 77.1 µM

SMILES: CNC(=O)[C@H]1CCN(c2ccc(-c3cn4cc(C(=O)N5CCc6sccc6[C@H]5C)cc(C5CC5)c4n3)c(F)c2)C1 (single isomer, unassigned) [Compound 14, (3S)-1-(4-{8-Cyclopropyl-6-[(4*R)-4-methyl-4,5,6,7-tetrahydro-thieno[3,2-c]pyridine-5-carbonyl]imidazo[1,2-a]pyridin-2-yl}-3-fluorophenyl)-N-methylpyrrolidine-3-carboxamide]
- EC50 [1]: 0.084 µM
- CC50 at 3 days [2]: > 100 µM

SMILES: C[C@@H]1c2ccsc2CCN1C(=O)c1cc(-c2cccnc2)c2nc(-c3ccc(N4CC[C@H](C(N)=O)C4)cc3F)cn2c1 (single isomer, unassigned) [Compound 18, (3S)-1-(3-Fluoro-4-{6-[(4*R)-4-methyl-4,5,6,7-tetrahydro-thieno[3,2-c]pyridine-5-carbonyl]-8-(pyridin-3-yl)imidazo[1,2-a]pyridin-2-yl}phenyl)pyrrolidine-3-carboxamide]
- EC50 [1]: 0.108 µM
- CC50 at 3 days [2]: 21.7 µM

SMILES: C[C@@H]1c2ccsc2CCN1C(=O)c1cc(C2CC2)c2nc(-c3ccc(N4CC[C@H](C(N)=O)C4)nc3F)cn2c1 (single isomer, unassigned) [Compound 23, (3S)-1-(5-{8-cyclopropyl-6-[(4*R)-4-methyl-4,5,6,7-tetrahydrothieno[3,2-c]pyridine-5-carbonyl]imidazo[1,2-a]pyridin-2-yl}-6-fluoropyridin-2-yl)pyrrolidine-3-carboxamide]
- EC50 [1]: 0.18 µM
- CC50 at 3 days [2]: 34.7 µM

SMILES: CC1c2ccsc2CCN1C(=O)c1cc(C2CC2)c2nc(-c3ccc(NC(=O)N4CC[C@@H](O)C4)cc3F)cn2n1 (single isomer, unassigned) [Compound 38, (R)-N-(4-(8-cyclopropyl-6-((R*)-4-methyl-4,5,6,7-tetrahydrothieno[3,2-c]pyridine-5-carbonyl)imidazo[1,2-b]pyridazin-2-yl)-3-fluorophenyl)-3-hydroxypyrrolidine-1-carboxamide]
- EC50 [1]: 0.012 µM
- CC50 at 3 days [2]: 35.9 µM

SMILES: CCc1cc(C(=O)N2CCc3sc(F)cc3C2C)nn2cc(-c3ccc(NC(=O)N4CC[C@@H](O)C4)cc3F)nc12 (single isomer, unassigned) [Compound 40, (R)-N-(4-(8-ethyl-6-((R*)-2-fluoro-4-methyl-4,5,6,7-tetrahydrothieno[3,2-c]pyridine-5-carbonyl)imidazo[1,2-b]pyridazin-2-yl)-3-fluorophenyl)-3-hydroxypyrrolidine-1-carboxamide]
- EC50 [1]: 0.017 µM
- CC50 at 3 days [2]: 29.9 µM

SMILES: CCc1cc(C(=O)N2CCc3ccc(F)cc3C2C)nn2cc(-c3ccc(NC(=O)N4CC[C@@H](O)C4)cc3F)nc12 (single isomer, unassigned) [Compound 41, (R)-N-(4-(8-ethyl-6-((R*)-7-fluoro-1-methyl-1,2,3,4-tetrahydroisoquinoline-2-carbonyl)-imidazo[1,2-b]pyridazin-2-yl)-3-fluorophenyl)-3-hydroxypyrrolidine-1-carboxamide]
- EC50 [1]: 0.026 µM
- CC50 at 3 days [2]: 26.8 µM

SMILES: C[C@@H]1c2ccccc2CCN1C(=O)c1cc(C2CC2)c2nc(-c3ccc(C(=O)O)cc3F)cn2c1 [Compound 1, 4-{8-Cyclopropyl-6-[(1R)-1-methyl-1,2,3,4-tetrahydroisoquinoline-2-carbonyl]imidazo[1,2-a]pyridin-2-yl}-3-fluorobenzoic Acid]
- EC50 [1]: 0.51 µM
- CC50 at 3 days [2]: 60.4 µM

SMILES: C[C@@H]1c2ccccc2CCN1C(=O)c1cc(C2CC2)c2nc(-c3ccc(C(N)=O)cc3F)cn2c1 [Compound 2, 4-{8-Cyclopropyl-6-[(1R)-1-methyl-1,2,3,4-tetrahydroisoquinoline-2-carbonyl]imidazo[1,2-a]pyridin-2-yl}-3-fluorobenzamide]
- EC50 [1]: 0.072 µM
- CC50 at 3 days [2]: 54 µM

SMILES: C[C@@H]1c2ccccc2CCN1C(=O)c1cc(C2CC2)c2nc(-c3ccc(N)cc3F)cn2c1 [Compound 3, 4-{8-Cyclopropyl-6-[(1R)-1-methyl-1,2,3,4-tetrahydroisoquinoline-2-carbonyl]imidazo[1,2-a]pyridin-2-yl}-3-fluoroaniline]
- EC50 [1]: 0.054 µM
- CC50 at 3 days [2]: 68 µM

SMILES: C[C@@H]1c2ccccc2CCN1C(=O)c1cc(C2CC2)c2nc(-c3ccc(NC(=O)N4CC[C@H](O)C4)cc3F)cn2c1 [Compound 4, (3S)-N-(4-{8-Cyclopropyl-6-[(1R)-1-methyl-1,2,3,4-tetrahydroisoquinoline-2-carbonyl]imidazo[1,2-a]pyridin-2-yl}-3-fluorophenyl)-3-hydroxypyrrolidine-1-carboxamide]
- EC50 [1]: 0.035 µM
- CC50 at 3 days [2]: 51.4 µM

SMILES: C[C@@H]1c2ccccc2CCN1C(=O)c1cc(C2CC2)c2nc(-c3ccc(NC(=O)N4CC[C@@H](O)C4)cc3F)cn2c1 [Compound 5, (3R)-N-(4-{8-Cyclopropyl-6-[(1R)-1-methyl-1,2,3,4-tetrahydroisoquinoline-2-carbonyl]imidazo[1,2-a]pyridin-2-yl}-3-fluorophenyl)-3-hydroxypyrrolidine-1-carboxamide]
- EC50 [1]: 0.048 µM
- CC50 at 3 days [2]: 40.1 µM

SMILES: C[C@@H]1c2ccccc2CCN1C(=O)c1cc(C2CC2)c2nc(-c3ccc(N4CC[C@H](C(=O)O)C4)cc3F)cn2c1 [Compound 9, (3S)-1-(4-{8-Cyclopropyl-6-[(1R)-1-methyl-1,2,3,4-tetrahydroisoquinoline-2-carbonyl]imidazo[1,2-a]pyridin-2-yl}-3-fluorophenyl)pyrrolidine-3-carboxylic Acid]
- EC50 [1]: 0.045 µM
- CC50 at 3 days [2]: 68.4 µM

SMILES: C[C@@H]1c2ccccc2CCN1C(=O)c1cc(C2CC2)c2nc(-c3ccc(N4CC[C@H](C(N)=O)C4)cc3F)cn2c1 [Compound 10, (3S)-1-(4-{8-Cyclopropyl-6-[(1R)-1-methyl-1,2,3,4-tetrahydroisoquinoline-2-carbonyl]imidazo[1,2-a]pyridin-2-yl}-3-fluorophenyl)pyrrolidine-3-carboxamide]
- EC50 [1]: 0.049 µM
- CC50 at 3 days [2]: 70.4 µM

SMILES: CNC(=O)[C@H]1CCN(c2ccc(-c3cn4cc(C(=O)N5CCc6ccccc6[C@H]5C)cc(C5CC5)c4n3)c(F)c2)C1 [Compound 11, (3S)-1-(4-{8-Cyclopropyl-6-[(1R)-1-methyl-1,2,3,4-tetrahydroisoquinoline-2-carbonyl]imidazo[1,2-a]pyridin-2-yl}-3-fluorophenyl)-N-methylpyrrolidine-3-carboxamide]
- EC50 [1]: 0.062 µM
- CC50 at 3 days [2]: > 100 µM

SMILES: C[C@@H]1c2ccccc2CCN1C(=O)c1cc(C2CC2)c2nc(-c3ccc(N4CC[C@H](O)C4)cc3F)cn2c1 [Compound 12, (3S)-1-(4-{8-Cyclopropyl-6-[(1R)-1-methyl-1,2,3,4-tetrahydroisoquinoline-2-carbonyl]imidazo[1,2-a]pyridin-2-yl}-3-fluorophenyl)pyrrolidin-3-ol]
- EC50 [1]: 0.169 µM
- CC50 at 3 days [2]: 67.7 µM

SMILES: C[C@@H]1CCCCCN1C(=O)c1cc(C2CC2)c2nc(-c3ccc(N4CC[C@H](C(N)=O)C4)cc3F)cn2c1 [Compound 15, (3S)-1-(4-{8-Cyclopropyl-6-[(2R)-2-methylazepane-1-carbonyl]imidazo[1,2-a]pyridin-2-yl}-3-fluorophenyl)pyrrolidine-3-carboxamide]
- EC50 [1]: 1.07 µM
- CC50 at 3 days [2]: 13.2 µM

SMILES: C[C@@H]1c2ccccc2CCN1C(=O)c1cc(-c2ccccc2)c2nc(-c3ccc(N4CC[C@H](C(N)=O)C4)cc3F)cn2c1 [Compound 16, (3S)-1-(3-Fluoro-4-{6-[(1R)-1-methyl-1,2,3,4-tetrahydroisoquinoline-2-carbonyl]-8-phenylimidazo[1,2-a]pyridin-2-yl}phenyl)pyrrolidine-3-carboxamide]
- EC50 [1]: 0.186 µM
- CC50 at 3 days [2]: 93.6 µM

SMILES: C[C@@H]1c2ccccc2CCN1C(=O)c1cc(C2CC2)c2nc(-c3ccc(NC(=O)N4CC[C@@H](O)C4)cc3F)cn2n1 [Compound 37, (R)-N-(4-(8-cyclopropyl-6-((R)-1-methyl-1,2,3,4-tetrahydroisoquinoline-2-carbonyl)imidazo[1,2-b]pyridazin-2-yl)-3-fluorophenyl)-3-hydroxypyrrolidine-1-carboxamide]
- CC50 at 3 days [2]: 32.2 µM

SMILES: CCc1cc(C(=O)N2CCc3ccccc3[C@H]2C)nn2cc(-c3ccc(NC(=O)N4CC[C@@H](O)C4)cc3F)nc12 [Compound 39, (R)-N-(4-(8-ethyl-6-((R)-1-methyl-1,2,3,4-tetrahydroisoquinoline-2-carbonyl)imidazo[1,2-b]pyridazin-2-yl)-3-fluorophenyl)-3-hydroxypyrrolidine-1-carboxamide]
- CC50 at 3 days [2]: 29.3 µM

— US20220033396A1, “FURTHER HETEROAROMATIC COMPOUNDS HAVING ACTIVITY AGAINST RSV” (priority 2018, published 2022)
